Test results taken from US10517889B2, “Modulators of SMAD7 expression” (Ionis Pharmaceuticals, Inc., priority 2017, dated 2019).
Strand notation (5' to 3'): a small letter for the sugar, then the base; units joined by * are phosphorothioate-linked, units joined directly phosphodiester-linked; [ ] holds rarer units or linkages, { } end groups; capitals alone tell only the bases. k = constrained ethyl (cEt); [5mC] = 5-methylcytosine; d = 2'-deoxy (DNA)

tested on: human SMAD7 mRNA; experiment: Antisense inhibition of human SMAD7 mRNA expression in Hep3B cells by 3-10-3 cEt gapmers, 10,000 nM, electroporation (Example 2); format: cell-based; conditions: Hep3B cells, 10,000 nM antisense oligonucleotide, electroporation, approximately 24 hours, RT-PCR primer probe set RTS5062, relative to untreated control cells
Method in brief: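 Hep3B cells (20,000/well) were electroporated with 10,000 nM 3-10-3 cEt gapmer (16-mer, phosphorothioate, 5-methylcytosines) and harvested after about 24 h. SMAD7 mRNA quantified by RT-qPCR with primer probe set RTS5062, normalized to total RNA by RiboGreen; percent inhibition relative to untreated cells.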

In order of falling “% Inhibition” value:
1. 799876 (kG*k[5mC]*k[5mC]*dA*dG*dG*dG*d[5mC]*d[5mC]*dG*d[5mC]*dA*d[5mC]*kT*kG*kT; antisense) [compound 799876]  55%
2. 799855 (kA*kG*k[5mC]*d[5mC]*dA*dA*dG*dT*dG*dT*d[5mC]*d[5mC]*dA*kT*k[5mC]*kA; antisense) [compound 799855]  52%
3. 799877 (kA*k[5mC]*kT*dT*dT*dA*d[5mC]*dA*dA*d[5mC]*d[5mC]*d[5mC]*dA*kA*kT*kA; antisense) [compound 799877]  52%
4. 799856 (kG*k[5mC]*kA*dA*dG*d[5mC]*d[5mC]*dA*dA*dG*dT*dG*dT*k[5mC]*k[5mC]*kA; antisense) [compound 799856]  43%
5. 799853 (k[5mC]*k[5mC]*kA*dA*dG*dT*dG*dT*d[5mC]*d[5mC]*dA*dT*d[5mC]*kA*kA*kG; antisense) [compound 799853]  42%
6. 799875 (kG*kT*kG*d[5mC]*dA*dG*dA*d[5mC]*dT*dG*dG*dA*dA*kA*kA*kG; antisense) [compound 799875]  41%
7. 799880 (kT*k[5mC]*k[5mC]*dG*dA*dT*dG*dG*dA*dA*dA*dA*dG*k[5mC]*kT*k[5mC]; antisense) [compound 799880]  39%
8. 799837 (antisense kT*k[5mC]*kA*dT*dA*dA*dG*d[5mC]*dA*dT*dA*dG*dA*kT*kT*kT) [compound 799837]  38%
9. 799839 (antisense kA*kG*k[5mC]*dA*d[5mC]*dA*dA*dT*dA*dT*dG*dA*dA*kT*kG*kT) [compound 799839]  36%
10. 799859 (kT*kG*kT*dA*dA*dT*dT*dT*dA*dG*d[5mC]*dA*dA*kT*kT*k[5mC]; antisense) [compound 799859]  32%
11. 799857 (kA*kG*kA*dA*d[5mC]*dT*dG*dA*dA*dA*dG*d[5mC]*dG*kG*k[5mC]*kG; antisense) [compound 799857]  31%
12. 799840 (antisense kA*kG*kG*dG*dA*dA*dG*dT*dT*dA*dG*dT*dG*kT*kT*kT) [compound 799840]  22%
13. 799852 (k[5mC]*kA*kA*dG*dT*dG*dT*d[5mC]*d[5mC]*dA*dT*d[5mC]*dA*kA*kG*k[5mC]; antisense) [compound 799852]  11%
14. 799879 (kT*kG*kG*dA*dA*dA*dA*dG*d[5mC]*dT*d[5mC]*d[5mC]*dT*kT*k[5mC]*kT; antisense) [compound 799879]  3%
15. 799838 (antisense kT*kT*kG*d[5mC]*dA*d[5mC]*d[5mC]*d[5mC]*d[5mC]*d[5mC]*dA*dT*dA*kA*k[5mC]*kT) [compound 799838]  2%
16. 799860 (kT*kG*k[5mC]*d[5mC]*dG*dA*d[5mC]*dA*d[5mC]*dA*dT*dG*dA*kG*kG*k[5mC]; antisense) [compound 799860]  0%
17. 799871 (kT*kT*kG*dG*dA*d[5mC]*dA*d[5mC]*dA*d[5mC]*dT*d[5mC]*dA*k[5mC]*kT*kG; antisense) [compound 799871]  0%
18. 799872 (kA*kA*kG*dT*dT*dA*dA*dT*d[5mC]*dA*dT*dT*dA*k[5mC]*kT*kT; antisense) [compound 799872]  0%
19. 799873 (kA*kA*kA*dA*dG*dT*dT*dA*dA*dT*d[5mC]*dA*dT*kT*kA*k[5mC]; antisense) [compound 799873]  0%
20. 799874 (k[5mC]*kA*kG*dA*d[5mC]*dT*dG*dG*dA*dA*dA*dA*dG*kT*kT*kA; antisense) [compound 799874]  0%

same assay, conditions: Hep3B cells, electroporation with 10,000 nM antisense oligonucleotide, approximately 24 hours, RTS5062, percent inhibition of SMAD7 mRNA relative to untreated control cells

In order of falling “% Inhibition” value:
1. 799829 (antisense kG*kA*kG*dT*dT*dT*dG*d[5mC]*dG*dA*dG*d[5mC]*d[5mC]*kA*kA*kG) [compound 799829]  75%
2. 799848 (kA*kG*k[5mC]*d[5mC]*dG*dA*dT*d[5mC]*dA*d[5mC]*dA*dA*dA*kA*kG*kG; antisense) [compound 799848]  59%
3. 799830 (antisense kG*kA*kA*dG*dA*dG*dT*dT*dT*dG*d[5mC]*dG*dA*kG*k[5mC]*k[5mC]) [compound 799830]  55%
4. 799828 (antisense kT*kG*k[5mC]*dG*dA*dG*d[5mC]*d[5mC]*dA*dA*dG*dA*dG*kA*k[5mC]*kA) [compound 799828]  54%
5. 799843 (antisense kG*kG*kA*dG*dG*dA*dG*dG*d[5mC]*dA*dA*dA*dT*kT*k[5mC]*kA) [compound 799843]  42%
6. 799849 (kA*kT*kA*dA*dG*d[5mC]*d[5mC]*dG*dA*dT*d[5mC]*dA*d[5mC]*kA*kA*kA; antisense) [compound 799849]  41%
7. 799841 (antisense kA*kA*kA*dG*dA*dA*dT*dG*dG*dT*dG*dG*dG*kT*kG*k[5mC]) [compound 799841]  37%
8. 799845 (antisense kG*kA*kA*dG*dT*dA*d[5mC]*d[5mC]*dT*dA*dG*dA*dG*kG*kA*kG) [compound 799845]  31%
9. 799847 (kT*kT*k[5mC]*d[5mC]*dA*d[5mC]*dT*dA*dT*dT*d[5mC]*dT*dA*kT*kG*kA; antisense) [compound 799847]  30%
10. 799827 (antisense kA*kA*k[5mC]*dT*dA*d[5mC]*dA*dA*d[5mC]*d[5mC]*dT*dT*dT*kT*kT*kA) [compound 799827]  26%
11. 799846 (kT*k[5mC]*k[5mC]*dA*d[5mC]*dT*dA*dT*dT*d[5mC]*dT*dA*dT*kG*kA*kA; antisense) [compound 799846]  25%
12. 799842 (antisense kG*kA*kA*dA*dG*dA*dA*dT*dG*dG*dT*dG*dG*kG*kT*kG) [compound 799842]  16%
13. 799844 (antisense kA*kG*kA*dG*dG*dA*dG*dG*dA*dG*dG*d[5mC]*dA*kA*kA*kT) [compound 799844]  11%

same assay, conditions: Hep3B cells, electroporation with 10,000 nM antisense oligonucleotide, approximately 24 hours, SMAD7 mRNA by RT-PCR (RTS5062), relative to untreated control cells

In order of falling “% Inhibition” value:
1. 799850 (kG*k[5mC]*kA*dA*dT*dA*dA*dA*dT*d[5mC]*dA*dA*d[5mC]*k[5mC]*kA*kG; antisense) [compound 799850]  49%
2. 799864 (k[5mC]*kT*k[5mC]*dA*dA*dG*d[5mC]*d[5mC]*d[5mC]*dA*d[5mC]*d[5mC]*d[5mC]*k[5mC]*kG*kG; antisense) [compound 799864]  42%
3. 799882 (kT*kT*kT*dG*dA*dA*d[5mC]*dA*dT*dT*dT*dA*d[5mC]*kT*kG*k[5mC]; antisense) [compound 799882]  41%
4. 799868 (k[5mC]*kA*kT*dA*dA*dA*d[5mC]*dA*dT*dG*dG*dG*d[5mC]*kT*k[5mC]*k[5mC]; antisense) [compound 799868]  34%
5. 799867 (k[5mC]*kT*k[5mC]*d[5mC]*dA*dA*dT*d[5mC]*dT*dG*dG*d[5mC]*dT*kG*kG*kT; antisense) [compound 799867]  24%
6. 799870 (kA*k[5mC]*k[5mC]*d[5mC]*dA*dG*dA*dA*dG*d[5mC]*dT*dG*d[5mC]*kT*kG*kT; antisense) [compound 799870]  18%
7. 799863 (kG*kG*k[5mC]*dT*d[5mC]*d[5mC]*d[5mC]*d[5mC]*d[5mC]*dA*d[5mC]*d[5mC]*dG*k[5mC]*kA*kT; antisense) [compound 799863]  16%
8. 799869 (k[5mC]*k[5mC]*kA*dT*dA*dA*dA*d[5mC]*dA*dT*dG*dG*dG*k[5mC]*kT*k[5mC]; antisense) [compound 799869]  16%
9. 799861 (kA*k[5mC]*k[5mC]*dG*d[5mC]*dA*dT*dG*d[5mC]*dG*dA*dT*d[5mC]*kG*kG*kT; antisense) [compound 799861]  15%
10. 799862 (k[5mC]*k[5mC]*k[5mC]*dA*d[5mC]*d[5mC]*dG*d[5mC]*dA*dT*dG*d[5mC]*dG*kA*kT*k[5mC]; antisense) [compound 799862]  14%
11. 799883 (kT*k[5mC]*kT*dA*dG*dA*dG*dG*dG*dT*dA*dG*dG*kA*kA*kA; antisense) [compound 799883]  9%
12. 799865 (kG*kG*kG*dA*d[5mC]*dA*dG*dA*d[5mC]*dT*dG*dT*d[5mC]*k[5mC]*k[5mC]*k[5mC]; antisense) [compound 799865]  0%
13. 799866 (k[5mC]*kA*k[5mC]*d[5mC]*dG*d[5mC]*dG*d[5mC]*dA*dG*dG*dG*dA*k[5mC]*kA*kG; antisense) [compound 799866]  0%
14. 799881 (kA*kA*kT*dA*dA*dA*dT*dT*d[5mC]*d[5mC]*dA*dA*dT*kG*k[5mC]*kA; antisense) [compound 799881]  0%

same assay, conditions: Hep3B cells, electroporation, 10,000 nM antisense oligonucleotide, approximately 24 hours, RTS5062, relative to untreated control cells

In order of rising “% inhibition of SMAD7 mRNA expression” value:
1. 799834 (antisense kG*kT*kG*dG*dT*dA*dT*dA*dG*d[5mC]*dA*dT*dG*k[5mC]*kA*kT) [compound 799834]  0%
2. 799832 (antisense k[5mC]*kA*k[5mC]*d[5mC]*d[5mC]*dA*dT*dA*d[5mC]*dT*dT*dG*dG*kA*kA*kG) [compound 799832]  14%
3. 799831 (antisense kT*kA*k[5mC]*dT*dT*dG*dG*dA*dA*dG*dA*dG*dT*kT*kT*kG) [compound 799831]  18%
4. 799833 (antisense kT*kT*kT*d[5mC]*dT*dG*dA*dA*d[5mC]*dA*dG*dA*dG*kT*k[5mC]*k[5mC]) [compound 799833]  39%
5. 799836 (antisense kA*kG*kA*dT*dA*dT*d[5mC]*dG*dG*d[5mC]*d[5mC]*d[5mC]*d[5mC]*k[5mC]*kT*kG) [compound 799836]  61%
6. 799835 (antisense kG*k[5mC]*kA*dG*dA*dT*dG*dT*dA*dT*dA*d[5mC]*dA*kA*kA*kT) [compound 799835]  70%
